# Laboratory results reported in US20200000752A1, “Method for Treating Epilepsy” (Vanderbilt University, priority 2016, published 2020).
# How the values were obtained:
# [1] = test system: cytochrome P450 enzymes (CYPs); settings: cited from earlier work
# [2] = Hepatic microsomal clearance (human); type: in vitro ADME; settings: liver microsomes, pH 7.4
# Experimental: Intrinsic clearance and predicted hepatic clearance: Intrinsic clearance will be determined using the substrate depletion approach. Reactions (0.3 mL) will be conducted using a Tecan EVO (San Jose, Calif.) in 96-well polypropylene cluster tubes with a temperature controlled water-jacketed aluminum plate holder held at 37° C. Incubations will be performed in triplicate in 0.1 M potassium phosphate buffer (pH 7.4), 3 mM MgCl2, 1 μM tizanidine, and 1 mg/mL liver microsomes. After incubation mixtures are equilibrated for 3 min at 37° C., reactions will be initiated with 10 mM NADPH to give a final NADPH concentration of 1 mM. At 0, 3, 7, 15, 25, and 45 min, a 25 μL aliquot will be removed from the reactions and delivered into 125 μL of acetonitrile containing an internal standard. The quench plates will then be centrifuged at 3,000×g for 10 min and an aliquot of the supernatants added to an injection plate with an equal volume of water. Samples will then be analyzed using LC/MS/MS.
# Intrinsic clearance is calculated as: […]
# Species-specific parameters for mouse and human liver protein content will be used. The predicted hepatic clearance will then be estimated using species-specific liver blood flow values: […]
# [3] = In vivo exposure (IV and PO) in rat
# CYP 2D6 = CYP 2D6 (Homo sapiens, UniProt P10635); experiment: biochemical
# Sequence of CYP 2D6 (P10635 whole entry): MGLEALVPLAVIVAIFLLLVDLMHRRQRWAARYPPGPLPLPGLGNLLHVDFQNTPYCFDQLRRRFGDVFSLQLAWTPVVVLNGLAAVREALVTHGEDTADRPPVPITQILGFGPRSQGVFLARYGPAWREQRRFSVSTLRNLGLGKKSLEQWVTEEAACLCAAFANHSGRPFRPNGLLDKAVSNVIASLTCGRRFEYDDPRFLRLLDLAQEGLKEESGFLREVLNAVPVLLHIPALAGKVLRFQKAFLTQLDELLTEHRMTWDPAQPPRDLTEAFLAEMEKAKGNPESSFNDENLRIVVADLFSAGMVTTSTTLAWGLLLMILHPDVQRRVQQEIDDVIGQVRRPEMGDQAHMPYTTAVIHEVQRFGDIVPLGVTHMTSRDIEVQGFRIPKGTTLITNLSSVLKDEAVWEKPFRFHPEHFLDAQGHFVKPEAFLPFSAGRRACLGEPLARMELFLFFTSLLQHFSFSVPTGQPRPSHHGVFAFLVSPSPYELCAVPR
# Gabrg2^+/Q390X mice = experiment: Barnes maze, Gabrg2+/Q390X mice; type: in vivo, mouse; settings: 0.3 mg/kg IP for 2 weeks, 2-4 months old
# Experimental: Flow chart in FIG. 13A depicts an overview of the Barnes maze. In training trials which are considered as learning test, time spent to locate the target hole was recorded and quantified for each day in each mouse genotype. In probe trials which are considered as memory test, an hour after the last training trial, each mouse was allotted a 300 sec session to find the target hole. […]. The total time spent at each of the 12 holes was assessed.
# Scn1a^+/− mouse = experiment: Chronic intermittent dosing toxicity in an Scn1a+/- mouse; type: in vivo
# Text: An eight-month old male Scn1a^+/− mouse with chronic intermittent dosing was investigated for cortex and hippocampus neuronal survival, which was normal (FIG. 8A).
# Scn1a^+/− mice = experiment: Early intermittent dosing, survival of Scn1a+/- mice; type: in vivo, mouse; settings: 0.3 mg/kg intermittent from postnatal day 7; untreated ~60% mortality by week 7
# Text: (FIG. 5B, C). Gabrg2^+/Q390X mice in C57/BL/6J background had ˜25% of mortality (B) while Scn1a^+/− mice in C57/BL/6J background had ˜60% of mortality by week 7 (C). […] The Gabrg2^+/Q390X mice were in C57/BL/6J background while Scn1a^+/− sires were from mixed S129/C57BL/6J and the dams were congenic C57/BL/6J. For each mouse model, heterozygous pups of both male and female from 6-8 litters were included.
# PI3K/AKT pathway = PI3K/AKT pathway activation in vitro; type: cell-based
# seizure activity = experiment: Oral gavage for 2 weeks, seizure threshold and seizure activity; type: in vivo, mice; settings: oral gavage 3 mg/kg for 2 weeks
# [4] = test system: mutant GABAA α1β2γ2(R82Q) receptors; experiment: Expression of mutant α1β2γ2(R82Q) receptor subunits in HEK 293T cells (SDS-PAGE immunoblot); type: cell-based
# Experimental: HEK 293T cells were transfected with α1, […] and the mutant γ2(R82Q) subunits at 1:1:1 cDNA ratio for 48 hrs. […] (FIG. 20A). Total cell lysates were analyzed by SDS-PAGE and the membrane was immunoblotted against al or γ2 subunits. (FIG. 20A). Protein IDVs of al or γ2 subunits were normalized to the cells without treatment (0) (FIG. 20B).
# [5] = rats; cited from earlier work
# heat shock protein Hsp70 = experiment: Hsp70 expression by high throughput flow cytometry in HEK 293T cells; type: cell-based; settings: 4 hrs before harvest
# Text: HEK 293T cells were transfected with α1, β2 and wild-type γ2S (wt) or the mutant γ2S(Q390X) (mut) subunits for 48 hrs (FIG. 16). […] The cells were permeabilized and stained with monoclonal hsp70 (1:200) which was then conjugated with Alexa 647.
# CYP 2C9 = CYP 2C9 (Homo sapiens, UniProt P11712); experiment: biochemical
# Sequence of CYP 2C9 (P11712 whole entry): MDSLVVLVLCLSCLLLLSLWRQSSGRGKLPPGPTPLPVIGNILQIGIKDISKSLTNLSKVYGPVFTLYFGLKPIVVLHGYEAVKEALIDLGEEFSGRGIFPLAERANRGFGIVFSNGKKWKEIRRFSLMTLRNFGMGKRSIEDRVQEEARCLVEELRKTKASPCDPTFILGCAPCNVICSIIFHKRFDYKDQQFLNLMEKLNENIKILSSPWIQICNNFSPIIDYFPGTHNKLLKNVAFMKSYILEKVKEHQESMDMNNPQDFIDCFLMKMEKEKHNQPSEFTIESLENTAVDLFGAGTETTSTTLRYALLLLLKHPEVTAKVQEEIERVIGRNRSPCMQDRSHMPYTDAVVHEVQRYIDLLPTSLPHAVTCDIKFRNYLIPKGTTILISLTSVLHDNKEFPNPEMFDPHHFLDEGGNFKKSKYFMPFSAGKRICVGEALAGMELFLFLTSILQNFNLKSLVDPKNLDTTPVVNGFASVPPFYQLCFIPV
# GABAergic mIPSCs = GABAergic mIPSCs in cortical layer VI pyramidal neurons of Gabrg2+/Q390X mice; type: in vivo, mouse
# Text: […]. This effect is consistent with its upregulation of GABAA receptor subunits. There is no difference between the decay tau (time constant) in the condition treated with celastrol vs non treated. (n=7-9 cells from 3 mice in each group, *P<0.05, ** P<0.01 vs het).
# Coronal ([…]) or horizontal ([…] thick) brain slices containing thalamic neurons in nucleus reticularis thalami (nRT), ventrobasal nucleus (VBn), Ventral lateral thalamus (VL) and cortex will be sectioned with a vibratome in ice-cooled solution containing (in mM) 214 Sucrose, 2.5 KCl, 1.25 NaH2PO4, 0.5 CaCl2), 10 MgSO4, 24 NaHCO3, and 11 D-glucose, pH 7.4 bubbled with 95% O2/5% CO2 at 4° C. Slices are then incubated in oxygenated artificial cerebrospinal fluid (ACSF)^40 at 36° C. for 30 min (Moyer and Brown, 1998). After this, slices will be kept at room temperature for at least 1 hr before recording on a Nikon Eclipse FN-1 IR-DIC microscope at room temperature. Pipette internal solution will contain (in mM): 135 CsCl, 10 EGTA, 10 HEPES, 5 ATP-Mg, and QX-314 (5 mM) (pH 7.25, 290-295 mOsm), and resistances will be of 2-4 MΩ (25). Tetrodotoxin (TIX) 1 μm will be added to the external solution. We will record the neurons in layer V-VI in somatosemsory cortex in this application. The experimental details have been described before^39.
# [6] = 3 litters with 6-8 grossly normal pups
compound,measurement,setting,value
"CC1=C(O)C(=O)C=C2C1=CC=C1[C@@]2(C)CC[C@@]2(C)[C@@H]3C[C@](C)(C(=O)O)CC[C@]3(C)CC[C@]12C [Celastrol, 3-Hydroxy-9β,13α-dimethyl-2-oxo-24,25,26-trinoroleana-1(10),3,5,7-tetraen-29-oic acid]",CYP inhibition as reported in the literature,[1],inhibits several CYP enzymes
same,CLint scaled,[2],31 mL/min/kg
same,half-life,[3],10 h
same,bioavailability,[3]; po,7.8%
same,IC50,CYP 2D6,> 10 µM
same,time spent at target hole in probe trial,Gabrg2^+/Q390X mice,spent more time in the target hole area
same,fertility,Scn1a^+/− mouse; [6],normal fertility
same,teratogenicity,Scn1a^+/− mouse; [6],no teratogenicity
same,"HE staining of liver, kidney and heart",Scn1a^+/− mouse; chronic intermittent dosing,"Normal cell numbers, morphology and viability"
same,"HE staining of lung, spleen, intestine, testis, leg muscle and skin",Scn1a^+/− mouse; chronic intermittent dosing,no abnormalities were identified
same,blood counts,Scn1a^+/− mouse; chronic intermittent dosing,normal blood counts
same,"organ function, total protein and metabolics",Scn1a^+/− mouse; chronic intermittent dosing,"normal function of liver, heart and kidney and normal total protein and metabolics"
same,cortex and hippocampus neuronal survival,"Scn1a^+/− mouse; eight-month old male, chronic intermittent dosing",normal
same,survival,Scn1a^+/− mice,completely rescued the survival
same,PI3K/AKT pathway,PI3K/AKT pathway,activate PI3K/AKT pathway
same,seizure threshold and seizure activity,seizure activity,increasing seizure threshold and reducing seizure activity
same,expression of mutant α1β2γ2(R82Q) receptors,[4]; applied 4 hrs before harvest,increased
same,"enhancing GABAA receptor subunit expression, comparison","[4]; different concentrations, 4 hrs",more effective in enhancing GABAA receptor subunit expression than Stiripentol
same,oral bioavailability (reported),[5],17.1%
same,expression of Hsp70,heat shock protein Hsp70,Increased
same,IC50,CYP 2C9,4.88 µM
same,amplitude of GABAergic mIPSCs,GABAergic mIPSCs; 0.3 mg/kg IP for 14 days,increased
same,frequency of GABAergic mIPSCs,GABAergic mIPSCs; 0.3 mg/kg IP for 14 days,increased
same,decay tau (time constant),GABAergic mIPSCs; treated vs non treated,no difference
